From US20240335555A1, “TECHNOLOGIES FOR PREVENTING OR TREATING INFECTIONS” (priority 2021, published 2024)
*: point of attachment. Biotin = O=C1N[C@H]2[C@H](CS[C@H]2CCCCC(=O)*)N1; PEG4 = NCCOCCOCCOCCOCCC(=O)O

How the values were obtained:
[1] = system: USA-WA1/2020 (SARS-CoV-2) virus; conditions: USA-WA1/2020 virus
[2] = target: T1, SARS-CoV-2 (COVID-19) S Protein RBD (Severe acute respiratory syndrome coronavirus 2, UniProt P0DTC2); type: binding; conditions: Octet
T1 construct: SARS-CoV-2 (COVID-19) S Protein RBD, His Tag—Acro Biosystems SPD-C52H3; purchased Acro Biosystems SPD-C52H3

[3] = target: T2, ACE2 binding to Spike RBD (Severe acute respiratory syndrome coronavirus 2, UniProt P0DTC2); experiment: biochemical; conditions: for inhibition at 1 µM: @ 1,000 nM
T2 construct: Biotin-(I-24) or His-tagged RBD protein is added; purchased Acro Biosystems SPD-C52H3 (RBD); AC2-H5257 (ACE2-Fc)

Work on `CC[C@H](C)[C@H](NC(=O)[C@H](CC(C)C)NC(=O)[C@H](CC(=O)O)NC(=O)[C@H](CO)NC(=O)[C@@H](NC(=O)[C@H](CCCNC(=N)N)NC(=O)[C@H](CCSC)NC(=O)[C@H](CO)NC(=O)[C@H](C)NC(=O)[C@H](CCC(=O)O)NC(=O)[C@H](C)NC(=O)[C@H](Cc1c[nH]cn1)NC(=O)CNC(=O)[C@H](CC(C)C)NC(=O)[C@H](CCC(=O)O)NC(=O)[C@H](CC(=O)O)NC(=O)[C@H](CC(C)C)NC(=O)[C@H](CC(C)C)NC(=O)[C@H](CCCNC(=N)N)NC(=O)[C@H](CCSC)NC(=O)[C@@H](NC(=O)[C@H](CCC(=O)O)NC(=O)[C@H](Cc1ccc(O)cc1)NC(=O)[C@@H](NC(=O)[C@H](CCCCN)NC(=O)[C@H](CCC(N)=O)NC(=O)[C@H](CC(C)C)NC(=O)[C@@H](NC(=O)[C@H](Cc1c[nH]c2ccccc12)NC(=O)[C@H](CCC(=O)O)NC(=O)[C@H](CCCCN)NC(=O)[C@H](CC(=O)O)NC(=O)CCOCCOCCOCCOCCNC(=O)CCCC[C@@H]1SC[C@@H]2NC(=O)N[C@@H]21)[C@@H](C)CC)[C@@H](C)CC)[C@@H](C)CC)C(C)C)C(=O)N[C@@H](Cc1ccc(O)cc1)C(=O)N[C@@H](CCC(=O)O)C(=O)N[C@@H](Cc1ccccc1)C(=O)N[C@@H](CCSC)C(=O)N[C@@H](CCCCN)C(=O)N[C@@H](CCCCN)C(=O)NCC(=O)N[C@@H](CC(=O)O)C(=O)N[C@@H](CCC(=O)O)C(=O)N[C@@H](CCCNC(=N)N)C(=O)N[C@@H](CC(C)C)C(=O)N[C@@H](CC(C)C)C(=O)N[C@@H](CCC(=O)O)C(=O)N[C@@H](CCC(=O)O)C(=O)N[C@@H](C)C(=O)N[C@@H](CCC(=O)O)C(=O)N[C@@H](CCCNC(=N)N)C(=O)N[C@@H](CC(C)C)C(=O)N[C@@H](CC(C)C)C(=O)N[C@@H](CCC(=O)O)C(=O)N[C@@H](CCC(=O)O)C(=O)N[C@H](C(=O)N[C@@H](CCC(=O)O)C(=O)N[C@@H](CCCNC(=N)N)C(N)=O)C(C)C` [Compound I-14] yielded an IC50 [1] of less than 4.6 nM.

In the case of `CC[C@H](C)[C@H](NC(=O)[C@H](CC(C)C)NC(=O)[C@H](CC(=O)O)NC(=O)[C@H](CO)NC(=O)[C@@H](NC(=O)[C@H](CCCNC(=N)N)NC(=O)[C@H](CCSC)NC(=O)[C@H](CO)NC(=O)[C@H](C)NC(=O)[C@H](CCC(=O)O)NC(=O)[C@H](C)NC(=O)[C@H](Cc1c[nH]cn1)NC(=O)CNC(=O)[C@H](CC(C)C)NC(=O)[C@H](CCC(=O)O)NC(=O)[C@H](CC(=O)O)NC(=O)[C@H](CC(C)C)NC(=O)[C@H](CC(C)C)NC(=O)[C@H](CCCNC(=N)N)NC(=O)[C@H](CCSC)NC(=O)[C@@H](NC(=O)[C@H](CCC(=O)O)NC(=O)[C@H](Cc1ccc(O)cc1)NC(=O)[C@@H](NC(=O)[C@H](CCCCN)NC(=O)[C@H](CCC(N)=O)NC(=O)[C@H](CC(C)C)NC(=O)[C@@H](NC(=O)[C@H](Cc1c[nH]c2ccccc12)NC(=O)[C@H](CCC(=O)O)NC(=O)[C@H](CCCCN)NC(=O)[C@H](CC(=O)O)NC(=O)CCOCCOCCOCCOCCNC(=O)CCCC[C@@H]1SC[C@@H]2NC(=O)N[C@@H]21)[C@@H](C)CC)[C@@H](C)CC)[C@@H](C)CC)C(C)C)C(=O)N[C@@H](Cc1ccc(O)cc1)C(=O)N[C@@H](CCC(=O)O)C(=O)N[C@@H](Cc1ccccc1)C(=O)N[C@@H](CCSC)C(=O)N[C@@H](CCCCN)C(=O)N[C@@H](CCCCN)C(=O)NCC(=O)N[C@@H](CC(=O)O)C(=O)N[C@@H](CCC(=O)O)C(=O)N[C@@H](CCCNC(=N)N)C(=O)N[C@@H](CC(C)C)C(=O)N[C@@H](CC(C)C)C(=O)N[C@@H](CCC(=O)O)C(=O)N[C@@H](CCC(=O)O)C(=O)N[C@@H](C)C(=O)N[C@@H](CCC(=O)O)C(=O)N[C@@H](CCCNC(=N)N)C(=O)N[C@@H](CC(C)C)C(=O)N[C@@H](CC(C)C)C(=O)N[C@@H](CCC(=O)O)C(=O)N[C@@H](CCC(=O)O)C(=O)N[C@H](C(=O)N[C@@H](CCC(=O)O)C(=O)N[C@@H](CCCNC(=N)N)C(=O)O)C(C)C` [Compound I-6], the IC50 [1] is reported as less than 4.6 nM.

With “Ac-DKEEILNKIYEIMRLLDELGNAEASMRVSDLILEFMKKGDERLLEEAERLLEEVER-NH2 [Compound I-1]” the “KD, Binding to Anchored Spike RBD” value [2] was “No Binding”, the inhibition at 1 µM [3] was 42% and the IC50 ([3]; ELISA competition, read-out: IC50, Inhibition of ACE2 Binding to Spike RBD) was greater than 1000 nM.

“{Biotin-PEG4}-DKEEILNKIYEIMRLLDELGNAEASMRVSDLILEFMKKGDERLLEEAERLLEEVER-NH2 [Compound I-2]” was tested, and the inhibition at 1 µM [3] was 30%.
